From US4431807A, “4-Methyl-5-(unsubstituted and substituted phenoxy)-6-methoxy-8-(aminoalkylamino)quinolines” (priority 1981, dated 1984)
Where “and” joins values, the source holds several entries; their conditions need not be identical. Equal values may be shown once.

Key:
Plasmodium berghei [1] = settings: newer clinical suppressive drug; cited from earlier work
Plasmodium berghei [2] = assay: Blood schizonticidal (suppressive) test, Rane mouse test, P. berghei; assay type: in vivo, Plasmodium berghei KBG 173 in ICR/HA Swiss mice; settings: for Cures (60 days survival) / Toxic / Suppressive activity (active/inactive): five mice; for Cures (60 days survival) / Toxic / Extension of survival relative to controls / Suppressive activity (active/inactive): Table III
Description: Blood Schizonticidal Test (Mouse), University of Miami, Rane (Suppressive)
This system is based on comparisons of responses to test compounds by Plasmodium berghei KBG 173 malaria in mice as expressed in mean survival times and the mean survival times of untreated controls. Thus, compounds noted as active produce increases in the survival times of the treated animals that are significant when compared with the survival times of untreated controls. Since an established disease is less sensitive to treatment than a disease in the early stages of development, treatment is withheld until the parasitemia is relatively high in order to insure a more reliable assay of activity and the selection of appropriate compounds for intensive preclinical studies.
Utilizing young ICR/HA Swiss mice and a standard inoculum of Plasmodium berghei KBG 173, it is possible to produce a uniform disease fatal to 100% of untreated animals within 6 to 8 days with a mean survival time of 6.2 days. Test animals weigh from 18 to 22 grams but weight variations in any given experimental or control group are confined to 2-3 grams. All animals in any given test are approximately of the same age. Animals on test are housed in metal-topped plastic cages, given a standard laboratory diet and water ad libitum.
Test animals receive an intraperitoneal injection of 0.5 ml of 1:100 dilution of heparinized heart's blood with a minimum of 90% parasitized cells (4×10^7 cells), drawn from donor mice infected one week earlier with Plasmodium berghei. The donor stran is maintained by weekly passages in separate groups of mice inoculated with a 0.5 ml of 1:500 dilution of heparinized heart's blood.
Test compounds are administered after dissolution or suspension in peanut oil. A single dose is given subcutaneously 72 hours after the mice are infected with Plasmodium berghei. At this time a 10-15 percent parasitemia has developed; the disease is well established but has not produced sufficient debility to alter the response of the host to toxic effects of the drug on test. Since treatment is withheld for three days to permit the infection to become well established and death occurs in untreated controls within 6-8 days, it is believed that this system presents a candidate compound with the maximum challenge. In order to check factors such as changes in the infectivity of Plasmodium berghei or in the susceptibility of the host or to detect technical errors, a group of infected animals treated with pyrimethamine at dose levels producing definite increases in survival time is included as a positive control in every experiment.
In each experiment test compounds are administered in graded doses. […] However, if an active drug is toxic for the host, its toxicity may become a limiting factor; continued increases in dose levels also increase the toxic effects and may result in the diminution of survival times. Deaths prior to the sixth day, when untreated controls begin to die, are regarded as non-parasitic and become the basis for toxicity evaluations. Treated animals are kept under observation for 60 days. Survivors at the end of this period of time are considered as cured.
An increase of 100% in mean survival time is considered the minimum effective response for a candidate compound. In calculating mean survival time, toxic deaths and 60 day survivors are not included.
The antimalarial activity data acquired by the two test procedures described above are listed in Tables 2 and 3 for the compounds of this invention. In Table 4, the most promising compound of the series, compound 1, is compared directly with primaquine together with some additional test data for compound 1 compared to primaquine. In all the work reported herein primaquine is used in the form of the diphosphate salt. The test data are expressed in the form of the number of cures at a given dose level. […]

Plasmodium cynomolgi = assay: Radical curative (tissue schizonticidal) test, SEATO, P. cynomolgi, rhesus monkey; assay type: in vivo, Plasmodium cynomolgi (strain B) in Indian rhesus monkeys; settings: for Molar Primaquine Index CD 100: primaquine CD100 dose / drug CD100 dose, in moles; for Radical curative activity relative to primaquine: in words
Protocol: Radical Curative Test in Rhesus Monkeys, SEATO Medical Research Laboratory, Bangkok, John Brown/Richard Andre
This test is designed to evaluate the tissue schizonticidal (radical curative) activity of test compounds. Well-conditioned Indian rhesus monkeys of either sex weighing 2-4 Kg are utilized. Plasmodium cynomolgi (strain B) sporozoites are prepared by grinding heavily infected Anopheles dirus salivary glands in 1:1 monkey serum-saline vehicle.
Monkeys are infected by I.V. injection of 10^6 freshly isolated P. cynomolgi sporozoites on day 0. A rapidly rising parasitemia develops after a 7-9 day prepatent period, and administration of the test drug is initiated when the rising parasite count exceeds 5000 per mm^3 (typically day 10-12). Test drugs are administered orally (by nasogastric intubation) once daily for 7 consecutive days in aqueous solution or, if insoluble, in suspension in 0.3% methylcellulose solution. Chloroquine diphosphate (3.1 mg/kg base/kg orally per day) is always administered concurrently with the test drug for 7 days to eliminate blood schizonts. Thus any tissue schizonticidal activity of the test drug will always be apparent even if it lacks blood schizonticidal activity.
A vehicle control monkey and a positive drug control (primaquine) monkey are included in each group of inoculated monkeys.
The effect of the test drug is determined by counting blood parasites. Parasite counts are made daily through day 20, and every two days thereafter. Initially a clearance of blood parasites is observed due to the blood schizonticidal action of chloroquine. […] If there is no relapse within 20 days of the initial clearance of parasitemia, the monkey is splenectomized and its parasitemia followed for an additional 30 days. If there is no relapse within this period, the experiment is terminated and the monkey is considered "cured".
Primaquine diphosphate cures over 90% of monkeys in this test system when administered at a dose of 1.3 mg/kg of salt per day for 7 days ([…]) in combination with chloroquine.
The antimalarial activity data acquired by the two test procedures described above are listed in Tables 2 and 3 for the compounds of this invention. In Table 4, the most promising compound of the series, compound 1, is compared directly with primaquine together with some additional test data for compound 1 compared to primaquine. In all the work reported herein primaquine is used in the form of the diphosphate salt. The test data are expressed in the form of the number of cures at a given dose level. Extension of life (mean survival time) relative to the controls is noted in the Rane mouse test; if the mean survival time is extended seven or more days, the compound is considered to be active.
The Molar Primaquine Index is useful in the radical curative test (Table II) as a gauge of the efficacy of a candidate drug relative to primaquine.

SMILES	Cures (60 days survival) (Plasmodium berghei [2]; 20 mg/kg × 1, s.c.) [C]	Cures (60 days survival) (Plasmodium berghei [2]; 40 mg/kg × 1, s.c.) [C]	Molar Primaquine Index CD 100 (Plasmodium cynomolgi)	Toxic (Plasmodium berghei [2]; 640 mg/kg × 1, s.c.) [T]	Cures (60 days survival) (Plasmodium berghei [2]; 10 mg/kg × 1, s.c.) [C]	Cures (60 days survival) (Plasmodium berghei [2]; 80 mg/kg × 1, s.c.) [C]	Cures (60 days survival) (Plasmodium berghei [2]; 160 mg/kg × 1, s.c.) [C]	Cures (60 days survival) (Plasmodium berghei [2]; 320 mg/kg × 1, s.c.) [C]	Cures (60 days survival) (Plasmodium berghei [2]; 640 mg/kg × 1, s.c.) [C]	further results
OC(c1cc(C(F)(F)F)nc2c(C(F)(F)F)cccc12)C1CCCCN1 (centres unmarked) [mefloquine]										Curative dose, Rane Test (Plasmodium berghei [1]): 20 mg/kg
COc1cc(NCCCC(C)N)c2nccc(C)c2c1Oc1cccc(C(F)(F)F)c1 (centres unmarked) [Compound 2, 8-((4-Amino-1-pentyl)amino)-6-methoxy-4-methyl-5-(3-trifluoromethylphenoxy)-quinoline Hemisuccinate]	4	5	1.3							
COc1cc(NC(C)CCCNC(C)C)c2nccc(C)c2c1Oc1cccc(C(F)(F)F)c1.O=C(O)CCC(=O)O (centres unmarked) [Compound 5, 8-((4-Isopropylamino-1-methylbutyl)amino)-6-methoxy-4-methyl-5-(3-trifluoromethylphenoxy)quinoline Succinate]			1.3	4						Suppressive activity (Plasmodium berghei [2]; in words, Table 3): totally ineffective
COc1cc(NC(C)CCCN)c2nccc(C)c2c1Oc1ccc(Cl)c(Cl)c1.O=P(O)(O)O (centres unmarked) [Compound 7, 8-((4-Amino-1-methylbutyl)amino)-5-(3,4-dichlorophenoxy)-6-methoxy-4-methylquinoline Phosphate]	5	5	1.3		5	5	5	5	5	Cures (60 days survival) (Plasmodium berghei [2]; 5 mg/kg × 1, s.c.): 4C
COc1cc(NCCCCC(C)N)c2nccc(C)c2c1Oc1cccc(C(F)(F)F)c1 (centres unmarked) [Compound 3, 8-((5-Amino-1-hexyl)amino)-6-methoxy-4-methyl-5-(3-trifluoromethylphenoxy)quinoline Hemisuccinate Hydrate]	5	5	1.3		3	4	4			Extension of survival relative to controls (Plasmodium berghei [2]; 5 mg/kg × 1, s.c.): 13 days; Suppressive activity (active/inactive) (Plasmodium berghei [2]; 5 mg/kg × 1, s.c.): A (Active, 7 Days or more estension of survival relative to controls.)
COc1cc(NC(C)CCCN)c2nccc(C)c2c1Oc1ccc(Cl)cc1Cl (centres unmarked) [Compound 8, 8-((4-Amino-1-methylbutyl)amino))-5-(2,4-dichlorophenoxy)-6-methoxy-4-methylquinoline Phosphate]	5	5	1.3	2	1	5	5	4	3	Toxic (Plasmodium berghei [2]; 320 mg/kg × 1, s.c.): 1T
COc1cc(NC(C)CCCN)c2nccc(C)c2c1Oc1ccc(F)cc1.O=P(O)(O)O (centres unmarked) [Compound 9, 8-((4-Amino-1-methylbutyl)amino)-5-(4-fluorophenoxy)-6-methoxy-4-methylquinoline Phosphate]	4	5	4.5	2	3	5	5	4	3	Extension of survival relative to controls (Plasmodium berghei [2]; 5 mg/kg × 1, s.c.): 7 days; Suppressive activity (active/inactive) (Plasmodium berghei [2]; 5 mg/kg × 1, s.c.): A (Active, 7 Days or more estension of survival relative to controls.); Toxic (Plasmodium berghei [2]; 320 mg/kg × 1, s.c.): 1T; minimal effective dose (Plasmodium berghei [2]; Plasmodium berghei, sc, single dose, read-out: Curative dose, suppressive test): 10 mg/kg; Toxicity in suppressive test (Plasmodium berghei [2]; relative to compound 1): somewhat more toxic; Radical curative activity relative to primaquine (Plasmodium cynomolgi): markedly superior to primaquine
COc1ccc(Oc2c(OC)cc(NC(C)CCCN)c3nccc(C)c23)cc1.O=P(O)(O)O (centres unmarked) [Compound 6, 8-((4-Amino-1-methylbutyl)amino)-6-methoxy-5-(4-methoxyphenoxy)-4-methylquinoline Phosphate]	1	5	4.6	3		5	5	5	2	Extension of survival relative to controls (Plasmodium berghei [2]; 10 mg/kg × 1, s.c.): 7 days; Suppressive activity (active/inactive) (Plasmodium berghei [2]; 10 mg/kg × 1, s.c.): A (Active, 7 Days or more estension of survival relative to controls.); Radical curative activity relative to primaquine (Plasmodium cynomolgi): markedly superior to primaquine
CCC(CCCN)Nc1cc(OC)c(Oc2cccc(C(F)(F)F)c2)c2c(C)ccnc12.O=C(O)CCC(=O)O (centres unmarked) [Compound 4, 8-((4-Amino-1-ethylbutyl)amino)-6-methoxy-4-methyl-5-(3-trifluoromethylphenoxy)-quinoline Succinate]	5	5	1.3		3	5	5	5		Cures (60 days survival) (Plasmodium berghei [2]; 640 mg/kg × 1, s.c., Succinate): 2C and 3C
